Source: paper PMC2363125 (British Journal of Cancer, 1999)
Values joined by “and” are separate entries in the source; they are usually repeats but may differ in a detail not shown here. Equal values may be shown once. “Also recorded” adds a separate entry of the source.

Legend:
[1] = system: L1210 cells; test: cells; details: for CC50: Mus musculus, L1210, 16 h, read-out: LC50; for reduction of nolatrexed LC90: absence of salvageable thymidine, abstract
Description: (§1) In particular, inhibition of thymidylate synthase (TS) is an attractive target for antimetabolite chemotherapy because thymine is the only nucleobase found exclusively in DNA and TS is a key enzyme, possibly the rate-limiting step, in DNA synthesis. One locus of action of 5-fluorouracil (5-FU), which is widely used for the treatment of colorectal, breast and head-and- neck cancer, is TS inhibition following its intracellular conversion to 5-FdUMP. […] Inhibition of TS results in the depletion of intracellular dTTP and, as a result of elevated dUMP levels, an accummulation of dUTP. […] In addition, release of nucleic acids from dead cells may result in high local concen- trations of salvageable nucleosides and bases in tumours. Salvage of pre-formed nucleosides is dependent on uptake across the plasma membrane into the cell. At physiological nucle- oside concentrations the principal mode of nucleoside uptake is via the es and ei equilibrative carriers, described as such on the basis of their sensitivity (es) or insensitivity (ei) to the transport inhibitor nitrobenzylmercaptopurine riboside (NBMPR). […] In addition, potentiation of the cytotoxicity of 5-FU was investigated. […] All other chemicals were obtained from Sigma unless stated otherwise. […] For growth inhibition and cytotoxicity assays, cells were adapted to grow in RPMI medium supplemented with 10% (v/v) dialysed serum (dialysed for 24 h at 4C against two changes of 9 volumes of phosphate-buffered saline (PBS) containing 1 g activated charcoal L-1 and a further two changes of 9 volumes of PBS) to remove thymidine. […] The uptake of 100 M thymidine by […] was followed at 2-second intervals over a 12-second time course in the presence or absence of inhibitor in 1% or 5% (v/v) DMSO. […] Exponentially growing L1210 cells were washed with and resus- pended in ice-cold transport buffer (130 mM sodium chloride, 5 mM potassium chloride, 1 mM magnesium chloride, 5 mM NaH2 PO4 , 10 mM glucose and 10 mM HEPES pH 7.4) at 2-4 x 10^7 cells ml-1 . […] Transport was initiated by adding 50 l of 300 M thymidine in transport buffer, containing 25 Ci ml-1 [methyl-3 H]thymidine (Sp. Act. 1.5-2.2 TBq mmol-1; Amersham, UK) and 2 Ci ml-1 [U-14 C]sucrose (17-27 GBq mmol-1; Amersham), to each tube in turn at 1-second intervals, giving final concentrations of: […] in transport buffer 5 mg ml-1 AGP, 100 M thymidine and 1% or 5% (v/v) DMSO inhibitor. […] The tubes were immediately centrifuged at 12 000g for 2 min at room temperature causing the cells to pass through the oil and into the KOH. […] Cell number and viability in each assay was determined by haemocytometer counting using trypan blue exclu- sion. After centrifugation the tubes were capped and cut in the oil layer such that the bottom portion (cells solubilized in KOH) fell into a 20 ml scintillation vial. […] The rate of thymidine uptake in the presence and absence of inhibitor was calculated by unweighted linear regres- sion analysis of thymidine uptake (pmol 10-6 cells) vs time (seconds) using GraphPad PRISMTM software (GraphPad Software Inc. San Diego, CA, USA). […] Kt and Tmax values were calculated using the equation describing a one-site binding hyperbola, fitted using GraphPad PRISM software. […] The DMSO concentration was controlled so as to be present at 1% (v/v) in the final incubation. Replicate aliquots of the remaining cell suspension were counted to obtain a time zero cell count.

[2] = system: L1210 cells; test: Growth inhibition assay, CB3717 with or without thymidine and transport inhibitor, 48 h cell count; type: cell-based, murine; details: for potentiation of CB3717 growth inhibition / reversal of thymidine rescue from CB3717 growth inhibition: 1 μM transport inhibitor, data not shown; for % Control cell growth + 3 M CB3717, + 1 M TdR / % Control cell growth + 3 M CB3717, no TdR / % Control cell growth + 10 M CB3717, + 1 M TdR / % Control cell growth + 10 M CB3717, no TdR: 10 μM transport inhibitor, normalized to inhibitor alone
[3] = system: thymidine transport (nucleoside transporter) in L1210 cells; test: Inhibition kinetics of thymidine transport (Kt, Tmax, Dixon plot Ki); details: for Ki: read-out: Ki for inhibition of thymidine uptake, L1210, abstract
Description: as §1

[4] = in vitro; details: mouse
Description: as §1

[5] = system: thymidine uptake (nucleoside transport, es and ei equilibrative carriers) in L1210 cells; test: Nucleoside transport inhibition assay (thymidine uptake, rapid mixing technique); type: cell-based, murine; details: for IC50: absence of AGP, point-to-point curve; for IC50 / % inhibition of thymidine uptake: L1210
Description: Antimetabolite inhibitors of de novo purine and pyrimidine synthesis are used extensively in cancer chemotherapeutic regimes (Schilsky, 1992). In particular, inhibition of thymidylate synthase (TS) is an attractive target for antimetabolite chemotherapy because thymine is the only nucleobase found exclusively in DNA and TS is a key enzyme, possibly the rate-limiting step, in DNA synthesis. One locus of action of 5-fluorouracil (5-FU), which is widely used for the treatment of colorectal, breast and head-and- neck cancer, is TS inhibition following its intracellular conversion to 5-FdUMP. […] Inhibition of TS results in the depletion of intracellular dTTP and, as a result of elevated dUMP levels, an accummulation of dUTP. This nucleotide pool imbalance contributes to DNA strand breakage and cell death (Curtin et al, 1991). […] Furthermore, resistance to antimetabolities mediated by nucleoside salvage may increase with malignancy (Fox et al, 1991; Kinsella and Harran, 1991). In addition, release of nucleic acids from dead cells may result in high local concen- trations of salvageable nucleosides and bases in tumours. Salvage of pre-formed nucleosides is dependent on uptake across the plasma membrane into the cell. At physiological nucle- oside concentrations the principal mode of nucleoside uptake is via the es and ei equilibrative carriers, described as such on the basis of their sensitivity (es) or insensitivity (ei) to the transport inhibitor nitrobenzylmercaptopurine riboside (NBMPR). […] Two antifolate TS inhibitors were selected for study: the classical antifolate, CB3717 (N10 -pro- pargyl-5,8-dideazafolic acid), and the non-classical antifolate TS inhibitor, nolatrexed (AG337, Thymitaq, 3,4-dihydro-2-amino- 6-methyl-4-oxo-5-(4-pyridylthio)-quinazoline dihydrochloride) (Webber et al, 1996). In addition, potentiation of the cytotoxicity of 5-FU was investigated. […] MATERIALS AND METHODS Drugs CB3717 (a gift from Zeneca Pharmaceuticals, Alderley Park, UK) was dissolved in 0.15 M sodium hydrogen carbonate and stored at 4C. […] All other chemicals were obtained from Sigma unless stated otherwise. Cell culture Murine leukaemia L1210 cells were used because their nucleoside transport characteristics have been well defined (Crawford et al, 1990). Cells were maintained as exponentially growing cultures (< 8 x 10^5 cells ml-1 ) in RPMI-1640 medium supplemented with 10% (v/v) fetal calf serum (Sigma), at 37C in an atmosphere of 5% carbon dioxide in air. […] For growth inhibition and cytotoxicity assays, cells were adapted to grow in RPMI medium supplemented with 10% (v/v) dialysed serum (dialysed for 24 h at 4C against two changes of 9 volumes of phosphate-buffered saline (PBS) containing 1 g activated charcoal L-1 and a further two changes of 9 volumes of PBS) to remove thymidine. […] Cells were routinely tested to exclude mycoplasma contamination (Chen, 1977). Nucleoside transport inhibition assay Thymidine uptake was assayed in L1210 cells using a modifica- tion of the rapid mixing technique of Wohlheuter et al (1978). The uptake of 100 µM thymidine by […] was followed at 2-second intervals over a 12-second time course in the presence or absence of inhibitor in 1% or 5% (v/v) DMSO. In experiments to determine the effect of AGP, the uptake of thymidine was also measured in the presence of 5 mg ml-1 human AGP (Sigma), which is the upper limit of plasma AGP concentrations in cancer patients, i.e. approx- imately 125 M (Kremer et al, 1988).

[6] = system: human cancer cell lines; set-up: method as in P Smith, manuscript in preparation; details: ref P Smith, manuscript in preparation; cited from earlier work
[7] = LC50 alone/LC50 + 1 μM inhibitor
[8] = inhibitor 1 μM, no AGP, 100 μM thymidine
[9] = inhibitor 10 μM + 5 mg ml-1 AGP
[10] = inhibitor 10 μM, no AGP, 100 μM thymidine

Compound	potentiation of CB3717 growth inhibition [2]	% Control cell growth + 3 M CB3717, + 1 M TdR ([2]; 48 h) [%]	% Control cell growth + 3 M CB3717, no TdR ([2]; 48 h) [%]	% Control cell growth + 10 M CB3717, + 1 M TdR ([2]; 48 h) [%]	% Control cell growth + 10 M CB3717, no TdR ([2]; 48 h) [%]	IC50 [5]	% inhibition of thymidine uptake [5, 8] [%]	% inhibition of thymidine uptake [5, 9] [%]	% inhibition of thymidine uptake [5, 10] [%]	other results
O=c1[nH]cc(F)c(=O)[nH]1 [5-FU, 5-fluorouracil]	–	–	–	–	–	–	–	–	–	CC50 [1]: 3.7 µM
C#CCN(Cc1ccc2nc(N)[nH]c(=O)c2c1)c1ccc(C(=O)N[C@@H](CCC(=O)O)C(=O)O)cc1 [CB3717, N10-propargyl-5,8-dideazafolate, reference compound]	–	–	–	–	–	–	–	–	–	% Control cell growth, 3 M CB3717, + 1 M TdR ([2]; No inhibitor, 48 h): 104%; % Control cell growth, 3 M CB3717, no TdR ([2]; No inhibitor, 48 h): 40%; % Control cell growth, 10 M CB3717, + 1 M TdR ([2]; No inhibitor, 48 h): 107%; % Control cell growth, 10 M CB3717, no TdR ([2]; No inhibitor, 48 h): 5%
OCCN(CCO)c1nc(N2CCCCC2)c2nc(N(CCO)CCO)nc(N3CCCCC3)c2n1 [Dipyridamole, 2,6-bis-(diethanolamino)-4,8-di-piperidino-pyrimidopyrimidine]	modest potentiation	4	4	1	0	–	–	–	–	type of inhibition of thymidine uptake ([3]; L1210): mixed-type inhibition; apparent Tmax of thymidine transport ([3]; in the presence of 0.3 μM inhibitor, L1210): 8.4 pmol/10-6 cells/s; Ki [3]: 0.28 µM; reversal of thymidine rescue from CB3717 growth inhibition [2]: partial reversal; activity at 16 h, 1 µM [4]: 100%; EF50 (enhancement factor), nolatrexed [1, 7]: 1.3; EF90 (enhancement factor), nolatrexed ([1]; LC90 alone/LC90 + 1 μM inhibitor, listed as DP): 7.5 and 6.1; reduction of nolatrexed LC90 [1]: > threefold; potentiation of 5-FU cytotoxicity ([1]; mouse): Significant potentiation
CC1(C)OCC(COc2nc(N3CCCCC3)c3nc(OCC4COC(C)(C)O4)nc(N4CCCCC4)c3n2)O1 (centres unmarked) [NU3026, 2,6-di-(2,2-dimethyl-1,3-dioxolan-4-yl)-methoxy-4,8-di-piperidinopyrimido-pyrimidine]	modest potentiation	26	8	20	1	1.2 µM and 1.1 µM	47	62	87	–
COCC(COc1nc(N2CCCCC2)c2nc(OCC(COC)OC)nc(N3CCCCC3)c2n1)OC (centres unmarked) [NU3059, 2,6-bis-(2,3-dimethoxypropoxy)-4,8-di-piperidino-pyrimidopyrimidine]	modest potentiation	10	5	7	0	1.9 µM	38	67	87	reversal of thymidine rescue from CB3717 growth inhibition [2]: partial reversal
COCCN(CCOC)c1nc(N2CCCCC2)c2nc(N(CCOC)CCOC)nc(N3CCCCC3)c2n1 [NU3060, 2,6-bis[N,N-di(2-methoxy)ethyl]-4,8-di-piperidino-pyrimidopyrimidine]	–	59	29	37	3	2.1 µM	29	43	86	–
COc1ccc(CNc2nc(N(CCO)CCO)nc3c(NCc4ccc(OC)cc4)nc(N(CCO)CCO)nc23)cc1 [NU3076]	–	–	–	–	–	0.25 µM	56	89	96	effect of AGP on inhibition of thymidine uptake ([5]; AGP 5 mg ml-1, inhibitor 1 and 10 μM): not significantly affected; % inhibition of thymidine uptake ([5]; inhibitor 1 μM + 5 mg ml-1 AGP): 46%; type of inhibition of thymidine uptake ([3]; L1210): mixed-type inhibition; Ki [3]: 0.1 µM; cell survival, inhibitor alone (cytotoxic per se) ([1]; 1 μM inhibitor alone, L1210): 100%; prevention of thymidine rescue from nolatrexed cytotoxicity ([1]; 1 μM inhibitor, 10 μM nolatrexed + 1 μM thymidine): partially blocked; also recorded: reduced but not blocked completely; potentiation of 5-FU cytotoxicity ([1]; 1 μM inhibitor, high 5-FU concentrations (30 and 100 μM), not significant at lower concentrations): Significant potentiation; EF50 (enhancement factor), 5-FU [1, 7]: 1.1; EF50 (enhancement factor), nolatrexed [1, 7]: 1.6; EF90 (enhancement factor), 5-FU ([1]; LC90 alone/LC90 + 1 μM inhibitor): 1.3; reduction of nolatrexed LC90 [1]: > threefold; block of thymidine rescue from TS inhibitor cytotoxicity [6]: can block thymidine rescue
Cc1ccc2nc(N)[nH]c(=O)c2c1Sc1ccncc1.Cl.Cl [Nolatrexed, 3,4-dihydro-2-amino-6-methyl-4-oxo-5-(4-pyridylthio)-quinazoline dihydrochloride]	–	–	–	–	–	–	–	–	–	effect of 1 μM thymidine on cytotoxic effect of 10 μM nolatrexed [1]: completely prevented; cells surviving ([1]; 10 μM nolatrexed alone, 16 h): 10-20%; CC50 [1]: 3.1 µM
